# Experimental data: US20190328721A1, “METHOD OF ACTIVATING DENDRITIC CELLS” (KOREA INSTITUTE OF SCIENCE AND TECHNOLOGY, priority 2018, published 2019)
# Experiments:
# [1] = test system: bone marrow-derived dendritic cells (BMDCs); assay: Phagocytosis of cancer cells by bone marrow-derived dendritic cells in vitro; format: cell-based, mice; settings: 30 μM, 1 hour
# [2] = test system: CT26.CL25 cancer cell line; assay: CT26.CL25 tumor model with depletion of immune cells; format: in vivo, mice; settings: 10 mg/kg intravenous
# Protocol: Specifically, tumor model mice were prepared by subcutaneously injecting 1×10^6 cells of CT26.CL25 cancer cell line expressing β-galactosidase into wild type mice by subcutaneous injection into the left side or the like.
# For the depletion of phagocytic cells in the tumor model mice, 200 μl of control liposome (FormuMax Scientific, Inc., USA) or 200 μl of clodronate liposome (FormuMax Scientific, Inc., USA) were injected intraperitoneally 5 days after cancer cell injection, and then 100 μl of the liposomes were intraperitoneally injected at intervals of 4 days until the end of the experiment Similarly, for the depletion of CD8 T cells or CD4 T cells, 200 μg of anti-CD8a antibodies (clone 2.43, bioXcell) or anti-CD4 antibodies (Clone GK 1.5, bioXcell, USA) were intraperitoneally injected (FIGS. 10A and 10B) to the tumor model mice. As a negative control, only the carrier (PBS) or the rat-derived nonspecific antibodies (rIgG, Clone LTF-2, bioXcell, USA) was administered to the tumor model mice.
# From the 6th day after the injection of the cancer cells, Y27632 was administered at a dose of 10 mg/kg continuously for two consecutive days via intravenous injection, followed by a day of rest as a cycle, followed by 3 cycles of 3-day intervals. Mice were sacrificed 22 days after the injection of cancer cells, the tumor tissues were excised, and ex vivo images were taken, and the tumor tissues were weighed. Before the sacrifice of the mice, the volume of the tumor over time was calculated as described above (FIGS. 10E and 10F). […] Thus, we confirmed that the therapeutic effect of ROCK inhibitors appears to require CD8 T cells. […] As a control, a rat-derived nonspecific antibody (rIgG, BioXcell, USA) was used.
# IFN-γ = IFN-γ ELISA of draining lymph node cells given β-gal peptide; format: in vivo, mice
# Protocol: After draining lymph node was isolated from the tumor model animals, 5 μg/ ? of β-gal peptide (TPHPARIGL, SEQ ID NO: 1, including the naturally processed H-2 Ld limited epitope comprising amino acid residue 876 to 884 of β-galactosidase) which simulates β-gal peptide, a model antigen present in CT26.CL25 cells, or PBS were administered and the expression of IFN-γ was measured by IFN-γ ELISA kit (R&D Systems, Inc., USA).
# [3] = test system: bone marrow-derived dendritic cells (BMDCs); assay: BMDC maturation markers CD40 and CD86 in vitro; format: cell-based, mice; settings: 30 μM, 1 hour
# Protocol: In addition, the present inventors used pretreatment with 30 μM of Y27632 for 1 hour of bone marrow-derived dendritic cells (BMDCs) stained with cell marker CellTracker CMFDA (Thermo Fisher Scientific, Inc., USA) and then removed floating tumor cells by withdrawing removing the supernatant. Twenty hours later, the expression of CD40 and CD86 was analyzed by flow cytometry.
# The present inventors then investigated whether dendritic cell maturation was promoted by the combination treatment of doxorubicin and Y27632. Specifically, 30 μM of Y27632 was used to pretreat bone marrow-derived dendritic cells (BMDC) stained with CellTracker CMFDA (Thermo Fisher Scientific, USA) for 1 hour, and then doxorubicin-treated CT26.CL25 was co-cultured for 4 hours, and floating cancer cells were removed by withdrawing supernatant. The expression level of CD40 and CD86, which are dendritic cell maturation markers, was analyzed by flow cytometry after 20 hours.
compound,measurement,setting,value
C[C@@H](N)[C@H]1CC[C@H](C(=O)Nc2ccncc2)CC1 [Y27632],phagocytosis of BMDCs against non-immunogenic apoptosis-induced cancer cells by cisplatin,[1]; CT26.CL25 or B16F10-Ova,increased similarly to that by doxorubicin treatment
same,phagocytosis of BMDCs against necrosis-induced cancer cells,[1]; necrosis at 55° C. for 30 minutes,increased similarly to that by doxorubicin treatment
same,anti-cancer effect when CD8 T cells were depleted by anti-CD8a antibodies,[2],disappeared
same,anti-cancer effect when phagocytic cells were depleted by clodronate,[2],disappeared
same,anticancer effect when CD4 T cells were deficient,[2],anticancer effect similar to that in normal mice
same,IFN-γ level in draining lymph node,IFN-γ; PBS liposome-treated group,increased
same,INF-γ expression in CD8-negative cells of draining lymph node,"IFN-γ; mouse, in vivo",no difference in INF-γ expression
same,amount of IFN-γ in CD8-positive cells of draining lymph node,"IFN-γ; mouse, in vivo",increased
same,DC maturation (CD40 and CD86 expression) of BMDCs,"[3]; co-cultivation with CT26.CL25, analysed twenty hours later",did not increase
same,dendritic cell maturation (CD40 and CD86) with doxorubicin-treated CT26.CL25,"[3]; co-culture 4 hours, analysed after 20 hours",increased
